The test system of assay [1] is A549 NRF2-ARE-Fluc stable cell line. The experiment in a line: A549 Nrf2 assay: NRF2-ARE firefly luciferase reporter gene assay. The class given is cell-based. The settings on record: Homo sapiens, read-out: Potency of inhibition, A549. Put shortly: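 A549 cells (Keap1 loss-of-function, constitutive NRF2) stably carrying ARE-driven firefly luciferase; compound treatment 18–24 h at 37 °C, 0.46% DMSO final.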
On the technique in general: In a reporter assay the amount or activity of a reporter protein is the signal.

For assay [2], the system named is H1437 NRF2-ARE-Fluc stable cell line. Kind of assay: H1437 Nrf2 assay: NRF2-ARE firefly luciferase reporter gene assay. The class given is cell-based. Particulars: Homo sapiens, NCI-H1437, H1437 NRF2-ARE-Fluc stable cell line; read-out: Potency of inhibition, H1437.

With `Cc1ccccc1C(=O)N1CCc2cc(-c3nc(NC(=O)Cc4cccc(O)c4)sc3C)ccc21` [Compound 234, 2-(3-hydroxyphenyl)-N-(5-methyl-4-(1-(2-methylbenzoyl)indolin-5-yl)thiazol-2-yl)acetamide], the IC50 in assay [1] and in assay [2] was 5 to 25 µM each time.

For the compound `NC(=O)C1CCN(c2ccc(S(=O)(=O)N3CCC(Cc4ccccc4)CC3)cn2)CC1` [Compound 41], the IC50 in assay [1] is less than 5 µM; in assay [2], 5 to 25 µM.

For `Cc1ccccc1C(=O)N1CCc2cc(Br)ccc21` [Compound 107, (5-bromoindolin-1-yl)(o-tolyl)methanone], the values for the IC50 in assay [1] and in assay [2] were 5 to 25 µM and more than 25 µM, respectively.

Turning to `Cc1sc(NC(=O)Cc2ccc3c(c2)OCO3)nc1-c1ccc2c(c1)CCN2C(=O)c1c(Cl)cnn1C` [Compound 187], the IC50 in assay [1] and in assay [2] was less than 5 µM in each case.

`Cc1ccc(C(=O)Nc2ccc(S(=O)(=O)N3CCOCC3)cc2)cc1` [compound 51]: the IC50 in assay [1] was 5 to 25 µM; in assay [2], more than 25 µM.

With `CNc1ccc(-c2cccc(NC(=O)Cc3ccccc3)n2)cc1` [Compound 64, N-(6-(4-(methylamino)phenyl)pyridin-2-yl)-2-phenylacetamide], the results for the IC50 in assay [1] and in assay [2] were 5 to 25 µM and more than 25 µM, respectively.

As for `Cc1sc(NC(=O)Cc2ccc3c(c2)OCO3)nc1-c1ccc2c(c1)CCN2C(=O)c1cccn1C` [Compound 184], the IC50 in assay [1] and in assay [2] was less than 5 µM throughout.

Take `O=C(Nc1ncc(Cc2ccc(C(F)(F)F)cc2)s1)c1ccn(Cc2ccccn2)n1` [Compound 192]: the IC50 in assay [1] and in assay [2] was more than 25 µM each time.

On to `Cc1ccccc1C(=O)N1CCc2cc(-c3nc(NC(=O)Cc4cccc(OCCOCCOCCN)c4)sc3C)ccc21` [Compound 238, 2-(3-(2-(2-(2-aminoethoxy)ethoxy)ethoxy)phenyl)-N-(5-methyl-4-(1-(2-methylbenzoyl)indolin-5-yl)thiazol-2-yl)acetamide], for which the IC50 in assay [1] and in assay [2] was 5 to 25 µM throughout.

For the compound `Cc1ccccc1C(=O)N(C)c1ccc(-c2cccc(NC(=O)Cc3ccccc3)n2)cc1` [Compound 68], the IC50 in assay [1] and in assay [2] was 5 to 25 µM in each case.

`CCN(C1CCCCC1)S(=O)(=O)c1ccc(S(=O)(=O)NCc2ccncc2)cc1` [Compound 33]: the IC50 in assay [1] was 5 to 25 µM; in assay [2], less than 5 µM.

On to `Cc1ccc(C(=O)N2CCc3cc(-c4nc(NC(=O)Cc5ccc6c(c5)OCO6)sc4C)ccc32)cc1` [Compound 23], for which the IC50 in assay [1] was 5 to 25 µM; in assay [2], more than 25 µM.

Regarding `O=C(Nc1ncc(Cc2ccc(C(F)(F)F)cc2)s1)c1ccn(-c2ccccc2)n1` [Compound 110], the figures for the IC50 in assay [1] and in assay [2] were less than 5 µM and 5 to 25 µM, respectively.

For `CC1CCCN(C(=O)c2ccc(S(=O)(=O)N3CCC(c4nc5ccccc5s4)CC3)cc2)C1` (stereo not shown) [Compound 36], the IC50 in assay [1] and in assay [2] was less than 5 µM in each case.

Take `CN(C)[S+](=O)([O-])c1ccc(NC(=O)c2ccc(CN3CCc4ccccc4C3)cc2)cc1` [compound 148]: the IC50 in assay [1] was less than 5 µM; in assay [2] it was more than 25 µM.

In the case of `COc1ccc(CC(=O)Nc2nc(-c3ccc4c(c3)CCN4C(=O)C3CC3)c(C)s2)cc1` [Compound 195], the IC50 in assay [1] is less than 5 µM; in assay [2], 5 to 25 µM.

`O=C(Nc1ccc(S(=O)(=O)N2CCOCC2)cc1)c1ccc(CN2CCC(c3ccccc3)CC2)cc1` [Compound 205]: the IC50 in assay [1] and in assay [2] was less than 5 µM in each case.

Turning to `O=C(Nc1nc2cc(C(F)(F)F)ccc2s1)c1ccc(-c2cccc([N+](=O)[O-])c2)o1` [Compound 111], the IC50 in assay [1] and in assay [2] was more than 25 µM in each case.

With `O=C(Nc1ncc(Cc2ccc(C(F)(F)F)cc2)s1)c1ccc(-c2ccccc2[N+](=O)[O-])o1` [Compound 18], the IC50 in assay [1] is 5 to 25 µM; in assay [2], less than 5 µM.

Turning to `O=C(Nc1ncc(Cc2ccc(Cl)cc2)s1)c1ccn(-c2ccccc2)n1` [Compound 224], the IC50 in assay [1] and in assay [2] was less than 5 µM throughout.

These data come from patent publication US20160046616A1, “NRF2 SMALL MOLECULE INHIBITORS FOR CANCER THERAPY” (THE JOHNS HOPKINS UNIVERSITY, priority 2013, published 2016).
